Experimental data as given in patent US20210038661A1, “TREATMENT OF TUMORS BY A COMBINATION OF AN ONCOLYTIC ADENOVIRUS AND A CDK4/6 INHIBITOR” (KLINIKUM RECHTS DER ISAR DER TECHNISCHEN UNIVERSITÄT MÜNCHEN, priority 2018, published 2021).

How the values were obtained:
UMUC3 cells [1] = assay: IC-80 value of PARPi in UMUC3 cells; format: cell-based; details: Homo sapiens
Procedure: Seeding of UMUC-3: 3000 cells were seeded per well in 12-well plates and grown over-night in DMEM Medium containing 10% FCS at 37° C. Inhibitor-treatment of cell occurred 24 h past seeding and again 1 hour after infection by adding indicated concentration to the medium. Infection of cells took place 24 h past inhibitor-treatment. Fixation and SRB-staining took place at 1-6 days post infection (dpi: days post infection). 160 nM PARPi correspond to the IC-80 value in UMUC3 cells.

T24 cells [2] = assay: IC-80 value of PARPi in T24 cells; format: cell-based; details: Homo sapiens, T-24
Procedure: 3000 T24 cells were seeded per well in 12-well plates and grown over-night in RPMI Medium containing 10% FCS at 37° C. Inhibitor-treatment of cells occurred 24 h past cell seeding and again 1 hour after infection by adding indicated concentration to the medium. Infection of cells took place 24 h past inhibitor-treatment in 250 μl Medium without serum. Fixation and SRB-staining took place at 1-5 days post infection (dpi: days post infection). 15 nM PARPi correspond to the IC-80 value in T24 cells.

dl703 = assay: DNA-replication analysis of dl703 in UMUC cells treated with cell cycle inhibitors (fiber qPCR); format: cell-based, Mastadenovirus, Type C, Serotype 5
Procedure: To investigate the differences in replication of d1703 (Mantwill et al. 2013, Journal of Translational Medicine, 11, 216) under different treatment conditions, DNA-replication analysis was performed. 100.000 UMUC cells were seeded in 6-well plates and grown in DMEM medium containing 10% FCS in 5% CO2 conditions at 37° C. 24 hours post seeding cells were treated for 24 hours with 10 μM Lee (Ribociclib), 1 μM CI-1040, 10 μM Nutlin-3a and 10 μM Roscovertine and again after infection adding an appropriate amount of inhibitors to the medium. Infection with 50 MOI dl703 (Mastadenovirus, Type C, Serotype 5 with a 3.2 kb sized deletion in E1 region) took place 24 hours post treatment. After 4 and 48 hours post infection DNA were isolated and qPCR was performed using specific primers for the viral fiber gene. Fiber fwd. 5′-[…]-3′; Fiber rev. 5′-[…]-3′.

UMUC3 cells [3] = assay: Cell cycle analysis (EdU/PI flow cytometry) of UMUC3 cells; format: cell-based, human; details: 48 hours; Roscovetine 10 μM, CI-1040 1 μM, Nutlin-3a 10 μM, LEE011 10 μM
Procedure: FIG. 10 is a bar diagram showing cell cycle distribution in UMUC3 cells, measured 48 hours post treatment, whereby the concentrations of the CDK4/6 inhibitors was as follows: Roscovetine: 10 μM, CI-1040: 1 μM, Nutlin-3a: 10 μM, and LEE011: 10 μM.
For cell cycle analysis cells were seeded in 6 well plates (2,5×10E4 c/well). 8 hours before infection with dl703, cells were treated with indicated concentration of cell cycle inhibitors. After infection with 10 MOI dl703 cells were again treated for 48 hours. Untreated cells and dl703 infected cells only, served as control. 48 h post infection cells were harvest by trypsinization and fixed with 80% ethanol while vortexing. To investigate the cell cycle status, fixed cells were centrifuged 5 min at RT and 300 g and ethanol was aspirated. Cells were resuspended and washed with 1%BSA-PBS (Bovine Serum Albumin) and again centrifuged. Cells were stained with EDU and cell cycle analysis were performed using the Click-iT™ Plus EdU Flow Cytometry Assay Kits, Catalog nos. C10632 from Thermo Fischer. In addition, after 3× times washing with 1% BSA/PBS cells were stained with PI (Propidium Iodine, 50 μg/ml). Measurement was directly performed after staining with a FACScalibur Flow Cytometry System. Data was analyzed with FlowJo software.

UMUC cells = assay: Western blot of Rb, phRB and E2F-1 in UMUC cells treated with cell cycle inhibitors; format: cell-based, human; details: 24 hours post-treatment; for Rb, phRB and E2F-1 expression: indicated concentrations
Procedure: Western Blot analysis of UMUC cells treated with indicated concentrations of CI-1040, Roscovitine, Nutlin-3a and LEE011 (Ribociclib). 1×10^6 cells were seeded in 10 cm dishes. 24 hours post-treatment proteins were isolated using 1% SDS buffer, to achieve the disruption of the nuclear membrane. All samples were drawn up several times into a syringe to disrupt the DNA and subsequently centrifuged at 30000 rpm at 4° C. for 30 minutes. The supernatant was transferred to a new reaction tube and directly used for further steps or stored at −80° C. To separate the proteins a sodium dodecyl sulfate polyacrylamide gel electrophoresis was performed. By means of electrophoresis for approximately two hours at 100V at 4° C., 40 μg of total proteins were loaded and probed against specific indicated antibodies.

SK-N-MC cells [4] = assay: Potency assay (SRB) of SK-N-MC cells, XVir-N-31, Abemaciclib and JQ1; format: cell-based; details: 500 nM JQ1 added to 200 nM Abemaciclib, XVir-N-31, 5 days post infection
Procedure: FIG. 16 is a bar diagram showing the result of a potency assay of SK-N-MC cells 5 days after exposure to XVir-N-31 alone, with 200 nM abemaciclib, 500 nM JQ1 or a combination of 200 nM abemaciclib and 500 nM JQ1, as percentage cell survival, whereby the cells were either not infected or infected with an MOI of 5, 10 or 20.
100.000 SK-N-MC cells/well were seeded in 12-well plates and grown in RPMI Medium containing 10% FCS at 5% CO2 at 37° C. Cells were treated with 200 nM Abemaciclib+500 nM JQ1 24 hours before and again 1 hour post infection by adding appropriate amount to the medium. Infection of XVir-N-31 took place in 500 μl in RPMI Medium without serum. SRB-Staining took place 5 days post infection. Mock treated cells were set 100% cell survival.

T24 cells [5] = assay: Potency assay (SRB) of T24 cells, XVir-N-31, Palbociclib and JQ-1; format: cell-based, human
Procedure: 5000 T24 cells were seeded in 12 well plates and grown in 1 ml RPMI-Medium containing 10% FCS. Next day cells were treated with 500 nM Palbociclib and 300 nM JQ-1. 24 hours post treatment cells were infected with indicated MOIs of XVir-N-31 in 200 μl RPMI-Medium containing no FCS. After 1 hour 800 μl RPMI-Medium containing 10% FCS were added into each well. In addition, 500 nM Palbociclib and 300 nM JQ-1 were added to the medium. SRB-Staining took place 5 days post infection. Mock treated cells were set 100% cell survival.

SK-N-MC cells [6] = assay: Cell cycle distribution (propidium iodine) of SK-N-MC cells; format: cell-based; details: 48 hours post treatment
Procedure: 48 hours post treatment cells were washed twice took place with PBS (containing RNase A,100 U/ml). Cells were trypsinized and centrifuged at 1500 rpm, 4° C. for 5 min. Cells are fixed by adding slowly 1 ml of ice-cold 80% Ethanol drop by drop to the pellet and incubated overnight. Staining was performed by adding 1 ml of staining solution (Propidium Iodine,50 μg/ml) to the cells and incubating 30-60 min at RT with gentle rocking. MK: MK-1775; LY: LY-2835219.

253J = assay: IC50 concentration of PD-0332991 in bladder cancer cell line 253J; format: cell-based; details: Homo sapiens
Procedure: (§1) The class of CDK4/6 inhibitors as subject to Example 5 requires expression of RB. Therefore, three RB positive and two RB negative bladder cancer derived cell lines were used and the cells treated with the combination therapy. Cell lines were pretreated for 24 hours with an IC50 concentration of PD-0332991 (T24: 500 nM, RT112: 2000 nM, 253J: 100 nM) and infected with XVir-N-31(T24 M0150, 253J MOI 25, RT112 MOI450). Values are the average of at least 2 independent experiments. Error bars show the standard error. Four dpi, cell viability was measured using SRB assays (a, c). (b, d) Lysates of cells were prepared 3 dpi and a titer test was performed on Hek293 cells. Viral titer is shown as fold change relative to control

RT112 = assay: IC50 concentration of PD-0332991 in bladder cancer cell line RT112; format: cell-based; details: Homo sapiens, RT-112
Procedure: as §1

T24 = assay: IC50 concentration of PD-0332991 in bladder cancer cell line T24; format: cell-based; details: Homo sapiens, T-24
Procedure: as §1

With `Cn1ncnc1[C@H]1c2n[nH]c(=O)c3cc(F)cc(c23)N[C@@H]1c1ccc(F)cc1` [BMN673] the IC80 (UMUC3 cells [1]) was 160 nM and the IC80 (T24 cells [2]) was 15 nM.
`O=C(NOCC1CC1)c1ccc(F)c(F)c1Nc1ccc(I)cc1Cl` [CI-1040] was tested, and the “viral DNA replication of dl703” value (dl703; 1 μM, 50 MOI dl703) was “much lower compared to Ribociclib treated cells”, the cell cycle distribution (UMUC3 cells [3]) was “clear G1-arrest” and the “E2F-1 as well as Rb and phRb expression” value (UMUC cells; 1 μM) was “induced inhibition”.
For `Cc1sc2c(c1C)C(c1ccc(Cl)cc1)=N[C@@H](CC(=O)OC(C)(C)C)c1nnc(C)n1-2` [JQ1, thieno-triazolo-1-4-diazepine], the cell killing (SK-N-MC cells [4]) was “did not increase cell killing”, the “cell killing capacity of XVir-N-31” value (T24 cells [5]; 300 nM JQ-1 with 500 nM Palbociclib, low MOIs, 5 days post infection) was “increased the cell killing capacity” and the “cell killing of XVir-N-31” value (T24 cells [5]; mono-therapy with 300 nM JQ1, 10 and 20 MOI) was “did not increase cell killing”.
`CN(C)C(=O)c1cc2cnc(Nc3ccc(N4CCNCC4)cn3)nc2n1C1CCCC1` [LEE011, ribociclib] was tested, and the “increase of viral DNA replication of dl703” value (dl703; 10 μM, 50 MOI dl703, 48 hours post infection) was about 100 fold, the cell cycle distribution (UMUC3 cells [3]) was “clear G1-arrest” and the “E2F-1 as well as Rb and phRb expression” value (UMUC cells; 10 μM) was “induced inhibition”.
In the case of `CCN1CCN(Cc2ccc(Nc3ncc(F)c(-c4cc(F)c5nc(C)n(C(C)C)c5c4)n3)nc2)CC1` [LY-2835219, abemaciclib], the cell cycle distribution (SK-N-MC cells [6]) is reported as “no effect”.
For `C=CCn1c(=O)c2cnc(Nc3ccc(N4CCN(C)CC4)cc3)nc2n1-c1cccc(C(C)(C)O)n1` [MK-1775], the cell cycle distribution (SK-N-MC cells [6]; 500 nM, alone) was “increase of cells in G2/M”.
In the case of `COc1ccc(C2=N[C@@H](c3ccc(Cl)cc3)[C@@H](c3ccc(Cl)cc3)N2C(=O)N2CCNC(=O)C2)c(OC(C)C)c1` [Nutlin-3a], the cell cycle distribution (UMUC3 cells [3]) is reported as “only little or no effect” and the “Rb, phRB and E2F-1 expression” value (UMUC cells) is reported as “no pronounced effect”.
`CC(=O)c1c(C)c2cnc(Nc3ccc(N4CCNCC4)cn3)nc2n(C2CCCC2)c1=O` [PD-0332991, palbociclib] gave an IC50 (253J) of 100 nM, an IC50 (RT112) of 2000 nM and an IC50 (T24) of 500 nM.
In the case of `CC[C@H](CO)Nc1nc(NCc2ccccc2)c2ncn(C(C)C)c2n1` [Roscovitine], the cell cycle distribution (UMUC3 cells [3]) is reported as “slight increase of G2/m arrested cells” and the “Rb, phRB and E2F-1 expression” value (UMUC cells) is reported as “no pronounced effect”.
